Laboratory results: PMC11571207, “Stereorandomized Oncocins with Preserved Ribosome Binding and Antibacterial Activity” (Journal of Medicinal Chemistry, 2024)
In brackets after ≈: the same amount, converted by molar mass. Like-named read-outs stand apart in the source and are kept apart here. Non-standard residues stand in square brackets, D forms with d. Residues, ends and D or L forms follow the SMILES beside them. Orn = NCCC[C@H](N)C(=O)O

Experiments:
human red blood cells = settings: red cells of human, 6 h
[1] = 25% (v/v) human serum in 0.1 M TRIS buffer pH 7.4, peptide 200 μM, 37 °C, 0/24/48/72 h, LC-MS UV trace vs 4-hydroxybenzoic acid internal standard, n = 3
Description: Human serum was diluted in 0.1 M filtered TRIS buffer pH 7.4 (50%, 1:1, v/v). Selected peptides were diluted in 0.1 M filtered TRIS buffer pH 7.4 to a concentration of 400 μM and 0.1 mg/mL 4- hydroxybenzoic acid was added as internal standard. Aliquots of peptide solution (300 μL) were added to aliquots of serum (300 μL) in sterile 1.5 mL Eppendorf tubes, to reach a peptide concentration of 200 μM and 25% (v/v) human serum during the assay. Samples, in triplicate, were incubated at 37 °C under gentle stirri ng (200 rpm). At different time points (0, 24, 48 and 72 hours), 100 μL of each sample was collected and quenched by precipitating serum proteins through the addition of (0.1 M) ZnSO4·7 H2O / ACN (1:1) (0.1 M, 100 μL) and cooling in ice bath for 10 minutes. Protein precipitates were pelleted under centrifugation (5 min at 14’000 rpm) and the supernatants were analysed by LC-MS. Peaks corresponding to the internal standard and the undegraded peptides were integrated from the area under the curves (AUC) of UV traces, with the ratio peptide/standard at t = 0 h as 100%.
Figure S7. Serum stability assay of the respective compound (200 μM), incubated with human serum (25% in TRIS buffer, 0.1 M, pH 7.4) at 37 °C. Aliquots were taken at different time (0 / 24 / 48 and 72 h). Undegraded peptide values determined by RP -HPLC analysis usi ng hydroxybenzoic acid as internal standard. Measured in triplicates and the data represent mean ± SD, n […]
(1 picture or pasted object on this page, not shown here)

[2] = molecular target: chaperone DnaK (His-tagged) (UniProt P0A6Y8); assay: MST; 16 two-fold dilutions of L-Onc from a maximum of 100 μM, mixed 1:1 with 40 nM His-Tag-labeled DnaK; MST buffer (50 mM TRIS, 150 mM NaCl, 10 mM MgCl2, Tween 20 0.05%); Monolith NT.115; apparent
Chain of chaperone DnaK (His-tagged) (P0A6Y8 whole entry): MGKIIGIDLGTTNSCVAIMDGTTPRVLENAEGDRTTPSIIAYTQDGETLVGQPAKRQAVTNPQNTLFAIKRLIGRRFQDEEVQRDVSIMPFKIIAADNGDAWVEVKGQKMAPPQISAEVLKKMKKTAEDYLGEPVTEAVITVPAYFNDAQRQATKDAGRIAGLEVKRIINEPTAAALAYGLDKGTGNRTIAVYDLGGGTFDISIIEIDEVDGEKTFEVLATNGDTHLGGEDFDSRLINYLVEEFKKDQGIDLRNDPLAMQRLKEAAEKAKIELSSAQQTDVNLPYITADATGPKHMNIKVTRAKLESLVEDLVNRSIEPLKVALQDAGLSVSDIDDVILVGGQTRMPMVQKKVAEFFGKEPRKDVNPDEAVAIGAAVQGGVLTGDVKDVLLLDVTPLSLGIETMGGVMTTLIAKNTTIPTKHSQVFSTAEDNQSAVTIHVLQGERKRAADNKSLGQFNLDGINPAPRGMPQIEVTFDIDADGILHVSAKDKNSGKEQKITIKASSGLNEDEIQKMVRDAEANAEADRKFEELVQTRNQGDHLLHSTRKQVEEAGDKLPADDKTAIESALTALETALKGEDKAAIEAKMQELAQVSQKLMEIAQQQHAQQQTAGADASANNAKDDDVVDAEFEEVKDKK

E. cloacae = assay: microbe, parasite or virus in culture; settings: for MIC E. cloacae: supplement CSV
Description: (§1) Minimum inhibitory concentration assay
(§2) Antimicrobial activity was assayed against P. aeruginosa PAO1, K. pneumoniae NCTC418, E. coli W3110, A. baumannii ATCC 19606, methicillin-resistant S. aureus COL (MRSA), and for selected peptides on P. aeruginosa PA14 and the polymyxin-B-resistant derivative PA14 2P4, as well as the clinical isolates ZEM-1A and ZEM9A, K. pneumoniae OXA-48, S. aureus Newman, Enterobacter cloacae and Burkholderia cenocepacia. The minimal inhibitory concentration (MIC) was determined by using broth microdilution method. A colo ny of bacteria was picked and grown in Luria-Bertani (LB) medium overnight at 37°C. For E. coli BW25113 sbmA::kan the medium was supplemented with 25 mg/L of kanamycin. The next day, the culture was then regrown in LB medium to log phase (OD600 = 0.6 to 0.8), which lasted approximately 4 h, and diluted to an OD600 of 0.022 in the desired medium. Stock solutions of 1 mg/mL of the samples were prepared in sterilized milliQ water and diluted to the beginning concentration of 64 μg/mL in 300 μL Mueller Hinton (MH)-medium. The diluted samples were added to first well of 96-well microtiter plate (TPP, untreated, Faust Laborbedarf, AG, Schaffhausen) and diluted serially by ½. Finally, 4 μL of the bacterial suspension was inoculated into the sample solutions (150 μL/well) with a final inoculation of about 5∙10^5 CFU/mL. The plates were then incubated at 37°C for 15-18h. For each assay, sterility (broth only) and growth control (broth with bacterial inoculum, without antibiotics) were checked with two columns in the plate. The next day, 15 μL of 3-(4,5-dimethylthiazol-2-yl)-2,5-diphenyltetrazolium bromide (MTT) was added to each well of the plate, such a way that MIC was defined as the lowest concentration of the peptide that inhibited visible growth of the tested

P. aeruginosa ZEM-1A = assay: microbe, parasite or virus in culture; settings: for MIC P. aeruginosa ZEM-1A: supplement CSV
Description: as §1, §2

K. pneumoniae OXA-48 = assay: microbe, parasite or virus in culture; settings: for MIC K. pneumoniae OXA-48: supplement CSV
Description: as §1, §2

[3] = test system: P. aeruginosa PA14 2P4 (pmrB); assay: microbe, parasite or virus in culture; settings: for MIC P. aeruginosa PA14 2P4: supplement CSV
Description: as §1, §2

P. aeruginosa PA14 = assay: microbe, parasite or virus in culture; settings: for MIC P. aeruginosa PA14: supplement CSV
Description: as §1, §2

P. aeruginosa ZEM9A = assay: microbe, parasite or virus in culture; settings: for MIC P. aeruginosa ZEM9A: supplement CSV
Description: as §1, §2

[4] = test system: P. aeruginosa PA14 4.18 (pmrB); settings: for MIC P. aeruginosa PA14 4.18: supplement CSV
K. pneumoniae NCTC 418 = assay: microbe, parasite or virus in culture; settings: supplement CSV
Method in brief: (§3)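 Read-out was visible growth after MTT addition, the MIC being the lowest inhibitory peptide concentration. Bacteria grown to log phase in LB were exposed in MH medium to peptide from 64 μg/mL in twofold dilutions for 15-18h at 37°C.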

A. baumannii ATCC19606 = assay: microbe, parasite or virus in culture
Method in brief: as §3

P. aeruginosa PAO1 = assay: microbe, parasite or virus in culture; settings: supplement CSV
Method in brief: as §3

S. aureus COL (MRSA) = assay: microbe, parasite or virus in culture; settings: for MIC S. aureus COL (MRSA): supplement CSV
Method in brief: as §3

E. coli W3110 = assay: microbe, parasite or virus in culture; settings: for MIC E. coli W3110: supplement CSV
Method in brief: as §3

[5] = test system: P. aeruginosa PA14 4.13 (phoQ); settings: for MIC P. aeruginosa PA14 4.13: supplement CSV
[6] = polymyxin B resistant strain, 12.5% MHB pH 7.4, 16–20 h at 37 °C
[7] = polymyxin B resistant strain, full MHB pH 7.4, 16–20 h at 37 °C

CC[C@H](C)[C@H](NC(=O)[C@H](CCCN)NC(=O)[C@H](CCCNC(=N)N)NC(=O)[C@@H]1CCCN1C(=O)[C@@H]1CCCN1C(=O)[C@H](CCCNC(=N)N)NC(=O)[C@@H]1CCCN1C(=O)[C@H](CCCNC(=N)N)NC(=O)[C@@H]1CCCN1C(=O)[C@H](CC(C)C)NC(=O)[C@H](Cc1ccc(O)cc1)NC(=O)[C@@H]1CCCN1C(=O)[C@@H]1CCCN1C(=O)[C@H](CCCCN)NC(=O)[C@H](CC(=O)O)NC(=O)[C@@H](N)C(C)C)C(=O)N[C@@H](Cc1ccc(O)cc1)C(=O)N[C@@H](CC(N)=O)C(=O)N[C@@H](CCCN)C(N)=O [Onc72] (H-VDKPPYLPRPRPPR[Orn]IYN[Orn]-NH2)
MHC human red blood cells (human red blood cells): >1000 µg/mL | Serum stability (undegraded peptide) [1]: essentially stable to degradation over 24 h

oncocin (L-oncocin) (peptide)
Kd [2]: 30 µM

CC(C)C[C@H](NC(=O)[C@H](CC(C)C)NC(=O)[C@H](CC(C)C)NC(=O)[C@@H](CCCCN)NC(=O)[C@H](CC(C)C)NC(=O)[C@H](CC(C)C)NC(=O)[C@@H](CCCCN)NC(=O)[C@H](CC(C)C)NC(=O)[C@H](CC(C)C)NC(=O)[C@@H](CCCCN)NC(=O)[C@H](N)CCCCN)C(N)=O [ln69, reference compound] (H-[dK][dK]LL[dK]LL[dK]LLL-NH2)
MHC human red blood cells (human red blood cells): 1000 µg/mL | MIC E. cloacae, 12.5% MHB (E. cloacae; 12.5% MHB pH 7.4, 16–20 h at 37 °C): 2 µg/mL (≈ 1.51 µM) | MIC E. cloacae, full MHB (E. cloacae; full MHB pH 7.4, 16–20 h at 37 °C): 4 µg/mL (≈ 3.03 µM) | MIC E. cloacae (E. cloacae; 12.5% MH pH 7.4): 2 µg/mL (≈ 1.51 µM) | MIC E. cloacae (E. cloacae; full MH pH 7.4): 4 µg/mL (≈ 3.03 µM) | MIC P. aeruginosa ZEM-1A, 12.5% MHB (P. aeruginosa ZEM-1A; clinical isolate, 12.5% MHB pH 7.4, 16–20 h at 37 °C, cells marked c: single measurement (in duplicates)): 4 µg/mL (≈ 3.03 µM) | MIC P. aeruginosa ZEM-1A, full MHB (P. aeruginosa ZEM-1A; clinical isolate, full MHB pH 7.4, 16–20 h at 37 °C, cells marked c: single measurement (in duplicates)): 1 µg/mL (≈ 0.757 µM) | MIC P. aeruginosa ZEM-1A (P. aeruginosa ZEM-1A; 12.5% MH pH 7.4): 4 µg/mL (≈ 3.03 µM) | MIC P. aeruginosa ZEM-1A (P. aeruginosa ZEM-1A; full MH pH 7.4): 1 µg/mL (≈ 0.757 µM) | MIC K. pneumoniae OXA-48, 12.5% MHB (K. pneumoniae OXA-48; carbapenem-resistant, 12.5% MHB pH 7.4, 16–20 h at 37 °C): 4/4 μg/mL | MIC K. pneumoniae OXA-48, full MHB (K. pneumoniae OXA-48; carbapenem-resistant, full MHB pH 7.4, 16–20 h at 37 °C): 4/4 μg/mL | MIC K. pneumoniae OXA-48 (K. pneumoniae OXA-48; 12.5% MH pH 7.4): 4 µg/mL (≈ 3.03 µM) | MIC K. pneumoniae OXA-48 (K. pneumoniae OXA-48; full MH pH 7.4): 4 µg/mL (≈ 3.03 µM) | MIC P. aeruginosa PA14 2P4 (pmrB), 12.5% MHB [3, 6]: 4 µg/mL (≈ 3.03 µM) | MIC P. aeruginosa PA14 2P4 (pmrB), full MHB [3, 7]: 32 µg/mL (≈ 24.2 µM) | MIC P. aeruginosa PA14 2P4 ([3]; 12.5% MH pH 7.4): 4 µg/mL (≈ 3.03 µM) | MIC P. aeruginosa PA14 2P4 ([3]; full MH pH 7.4): 32 µg/mL (≈ 24.2 µM) | MIC P. aeruginosa PA14, 12.5% MHB (P. aeruginosa PA14; 12.5% MHB pH 7.4, 16–20 h at 37 °C, two different duplicate MIC determinations): 2/2 μg/mL | MIC P. aeruginosa PA14, full MHB (P. aeruginosa PA14; full MHB pH 7.4, 16–20 h at 37 °C, two different duplicate MIC determinations): 2/2 μg/mL | MIC P. aeruginosa PA14 (P. aeruginosa PA14; 12.5% MH pH 7.4): 2 µg/mL (≈ 1.51 µM) | MIC P. aeruginosa PA14 (P. aeruginosa PA14; full MH pH 7.4): 2 µg/mL (≈ 1.51 µM) | MIC P. aeruginosa ZEM9A, full MHB (P. aeruginosa ZEM9A; clinical isolate, full MHB pH 7.4, 16–20 h at 37 °C): 4 to 8 µg/mL | MIC P. aeruginosa ZEM9A (P. aeruginosa ZEM9A; 12.5% MH pH 7.4): 2 µg/mL (≈ 1.51 µM) | MIC P. aeruginosa ZEM9A (P. aeruginosa ZEM9A; full MH pH 7.4): 4 to 8 µg/mL | MIC P. aeruginosa PA14 4.18 (pmrB), 12.5% MHB [4, 6]: 2 µg/mL (≈ 1.51 µM) | MIC P. aeruginosa PA14 4.18 (pmrB), full MHB [4, 7]: 16 µg/mL (≈ 12.1 µM) | MIC P. aeruginosa PA14 4.18 ([4]; 12.5% MH pH 7.4): 2 µg/mL (≈ 1.51 µM) | MIC P. aeruginosa PA14 4.18 ([4]; full MH pH 7.4): 16 µg/mL (≈ 12.1 µM) | MIC K. pneumoniae NCTC418 (K. pneumoniae NCTC 418; 12.5% MH pH 7.4): 4 µg/mL (≈ 3.03 µM) | MIC K. pneumoniae NCTC418 (K. pneumoniae NCTC 418; full MH pH 7.4): 8 µg/mL (≈ 6.05 µM) | MIC A. baumannii, 12.5% MHB (A. baumannii ATCC19606; A. baumannii ATCC19606, 12.5% Müller–Hinton medium, 16–20 h at 37 °C): 2 µg/mL (≈ 1.51 µM) | MIC A. baumannii, Full MHB (A. baumannii ATCC19606; A. baumannii ATCC19606, full Müller–Hinton medium, 16–20 h at 37 °C): 2 to 4 µg/mL | MIC A. baumannii ATCC19606 (A. baumannii ATCC19606; supplement CSV, 12.5% MH pH 7.4): 2 µg/mL (≈ 1.51 µM) | MIC P. aeruginosa PAO1 (P. aeruginosa PAO1; 12.5% MH pH 7.4): 2 µg/mL (≈ 1.51 µM) | MIC P. aeruginosa PAO1 (P. aeruginosa PAO1; full MH pH 7.4): 4 µg/mL (≈ 3.03 µM) | MIC S. aureus, 12.5% MHB (S. aureus COL (MRSA); S. aureus COL (MRSA), 12.5% Müller–Hinton medium, 16–20 h at 37 °C): 2 µg/mL (≈ 1.51 µM) | MIC S. aureus, Full MHB (S. aureus COL (MRSA); S. aureus COL (MRSA), full Müller–Hinton medium, 16–20 h at 37 °C): 16 µg/mL (≈ 12.1 µM) | MIC S. aureus COL (MRSA) (S. aureus COL (MRSA); 12.5% MH pH 7.4): 2 µg/mL (≈ 1.51 µM) | MIC S. aureus COL (MRSA) (S. aureus COL (MRSA); full MH pH 7.4): 16 µg/mL (≈ 12.1 µM) | MIC E. coli, 12.5% MHB (E. coli W3110; E. coli W3110, 12.5% Müller–Hinton medium, 16–20 h at 37 °C, broth microdilution): 2 µg/mL (≈ 1.51 µM) | MIC E. coli, Full MHB (E. coli W3110; E. coli W3110, full Müller–Hinton medium, 16–20 h at 37 °C, broth microdilution): 4 µg/mL (≈ 3.03 µM) | MIC E. coli W3110 (E. coli W3110; 12.5% MH pH 7.4): 2 µg/mL (≈ 1.51 µM) | MIC E. coli W3110 (E. coli W3110; full MH pH 7.4): 4 µg/mL (≈ 3.03 µM) | MIC P. aeruginosa PA14 4.13 (phoQ), 12.5% MHB [5, 6]: 2 µg/mL (≈ 1.51 µM) | MIC P. aeruginosa PA14 4.13 (phoQ), full MHB [5, 7]: 4 µg/mL (≈ 3.03 µM) | MIC P. aeruginosa PA14 4.13 ([5]; 12.5% MH pH 7.4): 2 µg/mL (≈ 1.51 µM) | MIC P. aeruginosa PA14 4.13 ([5]; full MH pH 7.4): 4 µg/mL (≈ 3.03 µM)
